These results are taken from patent US10316035B2, “Triazolopyridine inhibitors of myeloperoxidase” (BRISTOL-MYERS SQUIBB COMPANY, priority 2015, dated 2019).

SMILES strings stand for the structures.

The first test addresses T1, myeloperoxidase (MPO) (Homo sapiens, UniProt P05164).
T1 sequence (P05164 49-745): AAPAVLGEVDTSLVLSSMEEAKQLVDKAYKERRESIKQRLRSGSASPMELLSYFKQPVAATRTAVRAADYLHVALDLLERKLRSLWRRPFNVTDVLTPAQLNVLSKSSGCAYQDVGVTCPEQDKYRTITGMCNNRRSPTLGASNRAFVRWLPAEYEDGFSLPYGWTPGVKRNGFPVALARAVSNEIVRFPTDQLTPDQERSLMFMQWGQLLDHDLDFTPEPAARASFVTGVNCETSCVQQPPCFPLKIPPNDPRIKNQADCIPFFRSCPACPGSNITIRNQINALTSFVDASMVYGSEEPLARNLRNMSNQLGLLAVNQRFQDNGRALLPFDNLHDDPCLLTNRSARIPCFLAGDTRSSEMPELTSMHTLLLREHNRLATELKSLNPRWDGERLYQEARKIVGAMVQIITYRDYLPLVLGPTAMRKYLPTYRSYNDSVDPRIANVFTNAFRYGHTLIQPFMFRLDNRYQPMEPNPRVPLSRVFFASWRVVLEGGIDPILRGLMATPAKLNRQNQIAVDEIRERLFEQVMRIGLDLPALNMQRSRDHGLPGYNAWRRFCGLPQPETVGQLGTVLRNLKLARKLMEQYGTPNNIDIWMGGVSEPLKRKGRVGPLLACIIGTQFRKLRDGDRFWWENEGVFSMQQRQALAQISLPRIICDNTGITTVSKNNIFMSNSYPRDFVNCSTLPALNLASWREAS
The test can be described thus: MPO peroxidation assay (Amplex Red assay).
Conditions: not given
Type of test: biochemical. The method, boiled down:
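Peroxidase turnover of Amplex Red to fluorescent resorufin (Ex 535/Em 590 nm) was followed for 15 min in 100 mM KPi, pH 7.4, after 10 min room-temperature preincubation of compound with 200 pM enzyme plus 40 nM H2O2. The substrate mix contained 200 μM Amplex Red and 10 mM H2O2. IC50s came from linear-phase rates (180–540 s) fitted with a Hill equation.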
For the molecule `Nc1cc(OCc2ccccc2-n2cccn2)c2nn[nH]c2n1` [Example 255, 7-((2-(1H-Pyrazol-1-yl)benzyl)oxy)-3H-[1,2,3]triazolo[4,5-b]pyridin-5-amine], the IC50 is 101 to 999 nM.

Still in this test, the particulars now being: MPO peroxidation, potency range class; read-out: Amplex Red IC50.
In the case of `Nc1cc(OCc2cc([N+](=O)[O-])ccc2Cl)c2nn[nH]c2n1` [Example 249, 7-((2-chloro-5-nitrobenzyl)oxy)-3H-[1,2,3]triazolo[4,5-b]pyridin-5-amine], the IC50 was in the range of 1 to 100 nM.
With `CS(=O)(=O)c1ccc(COc2cc(N)nc3[nH]nnc23)c([N+](=O)[O-])c1` [Example 250, 7-((4-(methylsulfonyl)-2-nitrobenzyl)oxy)-3H-[1,2,3]triazolo[4,5-b]pyridin-5-amine], the IC50 lay in the range of 101 to 999 nM.
Take `Cc1nc(-c2ccc(COc3cc(N)nc4[nH]nnc34)c(F)c2)no1` [Example 251, 7-((2-fluoro-4-(5-methyl-1,2,4-oxadiazol-3-yl)benzyl)oxy)-3H-[1,2,3]triazolo[4,5-b] pyridin-5-amine]: the IC50 lay in the range of 1 to 100 nM.
On to `COc1cc(Cl)c(Cl)cc1COc1cc(N)nc2[nH]nnc12` [Example 252, 7-((4,5-Dichloro-2-methoxybenzyl)oxy)-3H-[1,2,3]triazolo[4,5-b]pyridin-5-amine], for which the IC50 was 1 to 100 nM.
Turning to `Nc1cc(OCc2ccccc2-n2cncn2)c2nn[nH]c2n1` [Example 253, 7-((2-(1H-1,2,4-Triazol-1-yl)benzyl)oxy)-3H-[1,2,3]triazolo[4,5-b]pyridin-5-amine], the IC50 fell in the range of 101 to 999 nM.
For the molecule `Nc1cc(OCc2ccc(-n3ccccc3=O)cc2OC(F)(F)F)c2nn[nH]c2n1` [Example 256, 1-(4-(((5-amino-3H-[1,2,3]triazolo[4,5-b]pyridin-7-yl)oxy)methyl)-3-(trifluoromethoxy)phenyl) pyridin-2(1H)-one], the IC50 is 101 to 999 nM.
Same read-out and setting: the result for `Nc1cc(OCc2ccc(-n3cccn3)cc2OC(F)(F)F)c2nn[nH]c2n1` [Example 257] reads 1 to 100 nM; that for `Nc1cc(OCc2ccc(-n3ncc4ccccc43)cc2OC(F)(F)F)c2nn[nH]c2n1` [Example 258, 7-((4-(1H-indazol-1-yl)-2-(trifluoromethoxy)benzyl)oxy)-3H-[1,2,3]triazolo[4,5-b]pyridin-5-amine], 1 to 100 nM; that for `Nc1cc(OCc2ccc(-n3cc4ccccc4n3)cc2OC(F)(F)F)c2nn[nH]c2n1` [Example 259, 7-((4-(2H-indazol-2-yl)-2-(trifluoromethoxy)benzyl)oxy)-3H-[1,2,3]triazolo[4,5-b]pyridin-5-amine], 1 to 100 nM.
Same read-out and setting: the result for `Nc1cc(OCc2ccc(-n3cnc(-c4ccccc4)c3)cc2OC(F)(F)F)c2nn[nH]c2n1` [Example 260, 7-((4-(4-phenyl-1H-imidazol-1-yl)-2-(trifluoromethoxy)benzyl)oxy)-3H-[1,2,3] triazolo[4,5-b]pyridin-5-amine] reads 1 to 100 nM; that for `Nc1cc(OCc2ccc(-n3cnc4ccccc43)cc2OC(F)(F)F)c2nn[nH]c2n1` [Example 261, 7-((4-(1H-benzo[d]imidazol-1-yl)-2-(trifluoromethoxy)benzyl)oxy)-3H-[1,2,3] triazolo[4,5-b]pyridin-5-amine], 101 to 999 nM.
Same read-out and setting: the result for `COC(=O)c1cn(-c2ccc(COc3cc(N)nc4[nH]nnc34)c(OC(F)(F)F)c2)cn1` [Example 264, methyl 1-(4-(((5-amino-3H-[1,2,3]triazolo[4,5-b]pyridin-7-yl)oxy)methyl)-3-(trifluoromethoxy)phenyl)-1H-imidazole-4-carboxylate] reads 101 to 999 nM; that for `Nc1cc(OCc2ccc(-n3cnc(CO)c3)cc2OC(F)(F)F)c2nn[nH]c2n1` [Example 265, (1-(4-(((5-amino-3H-[1,2,3]triazolo[4,5-b]pyridin-7-yl)oxy)methyl)-3-(trifluoromethoxy)phenyl)-1H-imidazol-4-yl)methanol], 1 to 100 nM; that for `CN(C)Cc1cn(-c2ccc(COc3cc(N)nc4[nH]nnc34)c(OC(F)(F)F)c2)cn1` [Example 266, 7-((4-(4-((dimethylamino)methyl)-1H-imidazol-1-yl)-2-(trifluoromethoxy)benzyl)oxy)-3H-[1,2,3]triazolo[4,5-b]pyridin-5-amine], 101 to 999 nM.
Consider `Nc1cc(OCc2ccc(-n3cncn3)cc2OC(F)(F)F)c2nn[nH]c2n1` [Example 267, 7-((4-(1H-1,2,4-triazol-1-yl)-2-(trifluoromethoxy)benzyl)oxy)-3H-[1,2,3]triazolo[4,5-b]pyridin-5-amine], for which the IC50 was 1 to 100 nM.
As to `Cc1nccn1-c1ccc(COc2cc(N)nc3[nH]nnc23)c(OC(F)(F)F)c1` [Example 268, 7-((4-(2-methyl-1H-imidazol-1-yl)-2-(trifluoromethoxy)benzyl)oxy)-3H-[1,2,3] triazolo[4,5-b]pyridin-5-amine], the IC50 was in the range of 1 to 100 nM.
As to `N#Cc1cnn(-c2ccc(COc3cc(N)nc4[nH]nnc34)c(OC(F)(F)F)c2)c1` [Example 270, 1-(4-(((5-amino-3H-[1,2,3]triazolo[4,5-b]pyridin-7-yl)oxy)methyl)-3-(trifluoromethoxy)phenyl)-1H-pyrazole-4-carbonitrile], the IC50 was in the range of 1 to 100 nM.
On to `Nc1cc(OCc2ccc(-n3cnc(C(F)(F)F)c3)cc2OC(F)(F)F)c2nn[nH]c2n1` [Example 272, 7-((2-(trifluoromethoxy)-4-(4-(trifluoromethyl)-1H-imidazol-1-yl)benzyl)oxy)-3H-[1,2,3]triazolo[4,5-b] pyridin-5-amine], for which the IC50 lay within 101 to 999 nM.
Take `Cc1cn(-c2ccc(COc3cc(N)nc4[nH]nnc34)c(OC(F)(F)F)c2)cn1` [Example 273, 7-((4-(4-methyl-1H-imidazol-1-yl)-2-(trifluoromethoxy)benzyl)oxy)-3H-[1,2,3] triazolo[4,5-b]pyridin-5-amine]: the IC50 was in the range of 101 to 999 nM.
Turning to `N#Cc1cc(-n2cnc3ccccc32)ccc1COc1cc(N)nc2[nH]nnc12` [Example 274, 2-(((5-amino-3H-[1,2,3]triazolo[4,5-b]pyridin-7-yl)oxy)methyl)-5-(1H-benzo[d]imidazol-1-yl)benzonitrile], the IC50 fell in the range of 101 to 999 nM.
For `Cc1cn(-c2ccc(COc3cc(N)nc4[nH]nnc34)c(C#N)c2)cn1` [Example 276, 2-(((5-amino-3H-[1,2,3]triazolo[4,5-b]pyridin-7-yl)oxy)methyl)-5-(4-methyl-1H-imidazol-1-yl)benzonitrile], the IC50 is 101 to 999 nM.
As for `Nc1cc(OCc2c(F)cc(-n3ccnc3)cc2F)c2nn[nH]c2n1` [Example 279, 7-((2,6-difluoro-4-(1H-imidazol-1-yl)benzyl)oxy)-3H-[1,2,3]triazolo[4,5-b] pyridin-5-amine], the IC50 lay in the range of 101 to 999 nM.
Turning to `CS(=O)(=O)c1cc(-n2ccnc2)ccc1COc1cc(N)nc2[nH]nnc12` [Example 280, 7-((4-(1H-imidazol-1-yl)-2-(methylsulfonyl)benzyl)oxy)-3H-[1,2,3]triazolo[4,5-b] pyridin-5-amine], the IC50 lay in the range of 101 to 999 nM.
Take `Nc1cc(OCc2c(F)cc(-n3ncc4ccccc43)cc2F)c2nn[nH]c2n1` [Example 281, 7-((2,6-difluoro-4-(1H-indazol-1-yl)benzyl)oxy)-3H-[1,2,3]triazolo[4,5-b]pyridin-5-amine]: the IC50 lay within 1 to 100 nM.
In the case of `CS(=O)(=O)c1cc(-n2ncc3ccccc32)ccc1COc1cc(N)nc2[nH]nnc12` [Example 282, 7-((4-(1H-indazol-1-yl)-2-(methylsulfonyl)benzyl)oxy)-3H-[1,2,3]triazol[4,5-b] pyridin-5-amine], the IC50 was 1 to 100 nM.
Consider `Nc1cc(OCc2ccc(-c3cccnc3)cc2OC(F)(F)F)c2nn[nH]c2n1` [Example 285, 7-((4-(Pyridin-3-yl)-2-(trifluoromethoxy)benzyl)oxy)-3H-[1,2,3]triazolo[4,5-b]pyridin-5-amine], for which the IC50 lay in the range of 1 to 100 nM.
In the case of `CNS(=O)(=O)c1ccc(-c2ccc(COc3cc(N)nc4[nH]nnc34)c(OC(F)(F)F)c2)cc1` [Example 286, 4′-(((5-amino-3H-[1,2,3]triazolo[4,5-b]pyridin-7-yl)oxy)methyl)-N-methyl-3′-(trifluoromethoxy)-[1,1′-biphenyl]-4-sulfonamide], the IC50 fell in the range of 1 to 100 nM.
In the case of `COc1ncc(-c2ccc(COc3cc(N)nc4[nH]nnc34)c(OC(F)(F)F)c2)cn1` [Example 288, 7-((4-(2-methoxypyrimidin-5-yl)-2-(trifluoromethoxy)benzyl)oxy)-3H-[1,2,3] triazolo[4,5-b]pyridin-5-amine], the IC50 was in the range of 101 to 999 nM.
As to `CSc1ccc(-c2ccc(COc3cc(N)nc4[nH]nnc34)c(OC(F)(F)F)c2)cn1` [Example 289, 7-((4-(6-(methylthio)pyridin-3-yl)-2-(trifluoromethoxy)benzyl)oxy)-3H-[1,2,3] triazolo[4,5-b]pyridin-5-amine], the IC50 was 1 to 100 nM.
Take `COc1ccc(-c2ccc(COc3cc(N)nc4[nH]nnc34)c(OC(F)(F)F)c2)cn1` [Example 290, 7-((4-(6-methoxypyridin-3-yl)-2-(trifluoromethoxy)benzyl)oxy)-3H-[1,2,3] triazolo[4,5-b]pyridin-5-amine]: the IC50 lay in the range of 1 to 100 nM.
